Data as given in patent publication US20060079453A1, “Hla binding peptides and their uses” (priority 2002, published 2006).
Read-outs that look alike come from different tables or passages of the source. No end group written: not given here.

Tests used:
Experiment in all cases: biochemical
Assay type in all cases: binding
HLA-DR DRB1*0901 (DR9) = HLA-DR DRB1*0901 (DR9) (Homo sapiens, UniProt P01903+P01911, A100R/A103E/D57H/D86V/F55Y/F60I/F76Y/I96F/K127E/L162R/M171V/P40D/Q125H/Q99R/R33Q/R42F/S133A/S66N/T210M/V115G/W38K/Y107V/Y59G/Y89S)
HLA-DR DRB1*0301 (DR3) = HLA-DR DRB1*0301 (DR3) (Homo sapiens, UniProt P01903+P01911, A100K/A102G/A103R/A169T/F55Y/I96L/K41T/L162R/M171V/P40S/Q125H/Q178H/Q39Y/R42S/S66N/T106N/T262R/W38E/Y61H)
HLA-DR DRB1*0701 (DR7) = HLA-DR DRB1*0701 (DR7) (Homo sapiens, UniProt P01903+P01911, A100R/A102G/A103Q/D57E/D86V/E43K/F76Y/K127E/L162R/M171V/P40G/Q125H/Q99D/R33Q/R42Y/R54Q/S133A/S66F/T210M/V115G/Y107V/Y59L/Y89S)
HLA-DR DRB1*0101 (DR1) = HLA-DR DRB1*0101 (DR1) (Homo sapiens, UniProt P01903+P01911, A100R/D57E/F55L/F60I/F76Y/I96L/L162R/M171V/P40L/Q125E/R42F/V115G/Y59C)
HLA-DR DRB1*0802 (DR8) = HLA-DR DRB1*0802 (DR8) (Homo sapiens, UniProt P01903+P01911, A100R/A103L/A169T/F76Y/H45Y/I96F/K41T/L162R/M171V/P40S/Q125H/Q178H/Q39Y/Q99D/R218S/R42G/S66Y/V115G/W38E)
HLA-DR DRB1*1101 (DR11) = HLA-DR DRB1*1101 (DR11) (Homo sapiens, UniProt P01903+P01911, A100R/A169T/A87E/I96F/K41T/L162R/M171V/P40S/Q125H/Q178H/Q39Y/Q99D/R42S/S66Y/T262R/V115G/W38E); conditions: DRB1 *1101
HLA-DR DRB5*0101 (DR51) = HLA-DR DRB5*0101 (DR51) (Homo sapiens, UniProt P01903+Q30154); conditions: DRB5 *0101
HLA-DR DRB1*1302 (DR13) = HLA-DR DRB1*1302 (DR13) (Homo sapiens, UniProt P01903+P01911, A100E/A169T/K41T/L162R/M171V/P40S/Q125H/Q178H/Q39Y/Q99D/R42S/S66N/T262R/V115G/W38E/Y61H); conditions: DRBI *1302
HLA-DR DRB1*0401 (DR4) = HLA-DR DRB1*0401 (DR4) (Homo sapiens, UniProt P01903+P01911, A100K/A169T/F76Y/I96L/K127E/L162R/M171V/N62H/P40V/Q125Y/R42H/S133A/S149N/S66Y/V115G/V209L/W38E)
HLA-DR DRB1*1501 (DR15) = HLA-DR DRB1*1501 (DR15) (Homo sapiens, UniProt P01903+P01911); conditions: DRBI *1501
HLA-DR DRB4*0101 (DR53) = HLA-DR DRB4*0101 (DR53) (Homo sapiens, UniProt P01903+P13762, G164S); conditions: DRB4 *0101

Sequence of HLA-DR DRB1*1302 (DR13) (P01903 26-254 limits assumed, other chains not shown): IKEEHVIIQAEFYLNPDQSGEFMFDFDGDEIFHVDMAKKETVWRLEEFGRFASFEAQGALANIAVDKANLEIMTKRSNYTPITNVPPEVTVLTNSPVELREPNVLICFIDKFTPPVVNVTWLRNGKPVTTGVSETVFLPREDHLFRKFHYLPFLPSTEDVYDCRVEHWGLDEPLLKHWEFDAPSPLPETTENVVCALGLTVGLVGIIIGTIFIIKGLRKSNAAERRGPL
Sequence of HLA-DR DRB1*1101 (DR11) (P01903 26-254 limits assumed, other chains not shown): as above
Sequence of HLA-DR DRB1*0301 (DR3) (P01903 26-254 limits assumed, other chains not shown): as above

Row | Compound | IC50 (HLA-DR DRB1*0901 (DR9); read-out: DRB1 *0901) [µM] | IC50 (HLA-DR DRB1*0301 (DR3); read-out: DRB1 *0301) [µM] | IC50 (HLA-DR DRB1*0701 (DR7); read-out: DRB1 *0701) [µM] | IC50 (HLA-DR DRB1*0101 (DR1); read-out: DRB1 *0101) [µM] | IC50 (HLA-DR DRB1*0802 (DR8); read-out: DRB1 *0802) [µM] | IC50 (HLA-DR DRB1*1101 (DR11)) [µM] | IC50 (HLA-DR DRB1*0901 (DR9); DRB1 *0901) [µM] | IC50 (HLA-DR DRB5*0101 (DR51)) [µM] | IC50 (HLA-DR DRB1*1302 (DR13)) [µM] | IC50 (HLA-DR DRB1*0701 (DR7); DRB1 *0701) [µM] | IC50 (HLA-DR DRB1*0401 (DR4); DRB1 *0401) [µM] | IC50 (HLA-DR DRB1*0101 (DR1); DRB1 *0101) [µM] | IC50 (HLA-DR DRB1*0802 (DR8)) [µM] | IC50 (HLA-DR DRB1*1501 (DR15)) [µM] | IC50 (HLA-DR DRB4*0101 (DR53)) [µM] | IC50 (HLA-DR DRB1*0301 (DR3)) [µM] | IC50 (HLA-DR DRB1*0401 (DR4); read-out: DRB1 *0401) [µM]
1 | LAHYDVLLSYPNK | 1.01 | 37.5 | 3.62 | 0.079 | 0.415 |  |  |  |  |  |  |  |  |  |  |  | 
2 | CC[C@H](C)[C@H](NC(=O)[C@H](CO)NC(=O)[C@H](CC(C)C)NC(=O)[C@@H](NC(=O)[C@H](CC(C)C)NC(=O)[C@H](CC(=O)O)NC(=O)[C@H](Cc1c[nH]c2ccccc12)NC(=O)[C@@H](N)CCSC)C(C)C)C(=O)N[C@@H](C)C(=O)N[C@@H](CC(C)C)C(=O)N[C@@H](CO)C(=O)N[C@H](C(=O)NCC(=O)N[C@@H](CS)C(=O)N[C@H](C(=O)O)[C@@H](C)O)C(C)C |  |  |  |  |  | 81.1 | 1.73 | 70.7 | 0.108 | 3.03 | 1.85 | 0.205 | 23 | 11.4 | 0.158 |  | 
3 | RGGMVFELANSIYLP | 0.033 | 37.1 | 0.041 | 0.01 | 8.68 |  |  |  |  |  |  |  |  |  |  |  | 
4 | CSCC[C@H](NC(=O)[C@H](CCC(N)=O)NC(=O)[C@H](CC(C)C)NC(=O)CNC(=O)[C@H](CO)NC(=O)[C@@H](NC(=O)[C@@H](NC(=O)[C@@H](NC(=O)[C@@H](N)CC(=O)O)[C@@H](C)O)[C@@H](C)O)C(C)C)C(=O)N[C@@H](C)C(=O)N[C@@H](CC(C)C)C(=O)N[C@@H](CC(=O)O)C(=O)N[C@H](C(=O)N[C@@H](Cc1ccc(O)cc1)C(=O)N[C@@H](CC(N)=O)C(=O)O)C(C)C |  |  |  |  |  | > 50 | 2.88 | > 200 | 3.5 | 14.7 | 4.42 |  | > 245 | 1.04 | 0.961 |  | 
5 | RQEILDLWVYHTQGF |  |  |  |  |  | 11.1 | 3.68 | > 20.5 |  | 3.05 | 5.93 |  | 2.73 | 0.985 |  | 10.5 | 
6 | CC[C@H](C)[C@H](NC(=O)[C@@H](N)CCC(N)=O)C(=O)N[C@@H](Cc1ccc(O)cc1)C(=O)N[C@H](C(=O)N[C@@H](C)C(=O)N[C@@H](C)C(=O)N[C@@H](Cc1ccccc1)C(=O)N[C@H](C(=O)N[C@H](C(=O)N[C@@H](CCC(N)=O)C(=O)N[C@@H](C)C(=O)N[C@@H](C)C(=O)N[C@@H](C)C(=O)N[C@@H](CCC(=O)O)C(=O)N[C@H](C(=O)O)[C@@H](C)O)C(C)C)[C@@H](C)O)C(C)C |  |  |  |  |  | 0.034 | 0.065 | 0.216 |  | 0.324 | 0.0016 | 0.0016 | 0.102 | 0.252 | 0.05 | 26.6 | 
7 | CC[C@H](C)[C@H](N)C(=O)N[C@@H](CO)C(=O)N[C@H](C(=O)N[C@H](C(=O)N[C@@H](CC(N)=O)C(=O)N[C@@H](CCC(=O)O)C(=O)N[C@@H](CC(=O)O)C(=O)NCC(=O)N[C@@H](CC(N)=O)C(=O)N[C@@H](CCC(=O)O)C(=O)N[C@H](C(=O)N[C@@H](Cc1ccccc1)C(=O)N[C@@H](CC(N)=O)C(=O)N[C@H](C(=O)N[C@@H](CO)C(=O)O)[C@@H](C)O)[C@@H](C)CC)[C@@H](C)CC)[C@@H](C)CC |  |  |  |  |  |  | > 52.3 |  |  | > 23.1 | > 13 |  | > 123 |  |  | 0.559 | 
8 | CC[C@H](C)[C@H](NC(=O)[C@H](CS)NC(=O)[C@H](Cc1c[nH]cn1)NC(=O)[C@H](C)NC(=O)[C@H](C)NC(=O)[C@@H](NC(=O)[C@H](CC(C)C)NC(=O)[C@@H](NC(=O)[C@H](Cc1c[nH]c2ccccc12)NC(=O)[C@H](CCC(N)=O)NC(=O)[C@@H]1CCCN1C(=O)[C@@H](N)Cc1c[nH]cn1)C(C)C)[C@@H](C)O)C(=O)N[C@@H](CCCNC(=N)N)C(=O)N[C@@H](CC(N)=O)C(=O)N[C@@H](CCCCN)C(=O)O |  |  |  |  |  |  | 0.107 | 0.04 |  | 0.283 | 1.62 | 0.013 | 1.3 | 6.5 | 5.52 | 3.63 | 
9 | SHDLMLLRLSEPAEL | 0.064 | 6.22 | 0.058 | 0.532 | 3.54 |  |  |  |  |  |  |  |  |  |  |  | 4.05
10 | CC(C)C[C@H](NC(=O)[C@@H]1CCCN1C(=O)[C@H](Cc1c[nH]cn1)NC(=O)[C@@H]1CCCN1C(=O)[C@H](Cc1ccccc1)NC(=O)[C@H](CO)NC(=O)[C@H](Cc1c[nH]cn1)NC(=O)[C@H](CO)NC(=O)[C@@H](NC(=O)[C@H](CCC(N)=O)NC(=O)[C@H](Cc1ccccc1)NC(=O)[C@@H](NC(=O)[C@H](CCC(N)=O)NC(=O)CN)C(C)C)C(C)C)C(=O)N[C@@H](Cc1ccc(O)cc1)C(=O)O |  |  |  |  |  |  | 0.033 | 0.128 | 0.146 | 0.027 | 0.0082 |  | 0.548 | 2.17 |  | 45 | 
11 | CAWTIVRVEILRNFY |  |  |  |  |  |  | 0.757 |  |  | 0.746 | 0.158 | 0.066 | 43.7 |  | 0.152 | 3.56 | 
12 | PRSLQCVSLHLLSND |  |  |  |  |  | 11.1 | 28.3 | 46.4 | 3.73 | 2.22 | 16 | 1.11 | 6.11 | 1.6 | 0.544 |  | 
13 | FYNQHLTGSHLVEAL | 41.5 | 67.2 | 0.015 | 0.0092 | > 54.4 |  |  |  |  |  |  |  |  |  |  |  | 0.858
14 | CC[C@H](C)[C@H](NC(=O)CNC(=O)[C@H](CCC(N)=O)NC(=O)[C@H](CC(C)C)NC(=O)[C@@H](NC(=O)CNC(=O)[C@H](CC(N)=O)NC(=O)[C@H](CS)NC(=O)[C@@H](NC(=O)[C@H](CC(C)C)NC(=O)[C@@H]1CCCN1C(=O)CN)C(C)C)C(C)C)C(=O)N[C@H](C(=O)N[C@@H](CO)C(=O)N[C@@H](Cc1c[nH]c2ccccc12)C(=O)O)[C@@H](C)O |  |  |  |  |  | 0.915 | 32.6 | 6.54 | 0.049 | 4.89 | 0.03 | 1.72 | 4.19 | 6.31 | 0.646 |  | 
